Series [1] deals with pooled Enterobacteriaceae isolates. The series is described as follows: Pharmacokinetic-pharmacodynamic analyses (Hill-type models) of the 400 mg ceftibuten dose-ranging studies. Conditions: 400 mg of ceftibuten, 24 hours. The format is cell-based. The protocol:
Data from the avibactam dose-ranging studies, in combination with 400 mg q8h of ceftibuten, were evaluated using Hill models and non-linear least squares regression. All data was weighted using the inverse of the estimated measurement variance. […] The relationships between change in log10 CFU/mL and percent time above avibactam concentration thresholds (Ct) ranging from 0.125 mg/L to 2 mg/L were also evaluated.

The conditions of series [2]: human; cited from earlier work.
The conditions of series [3]: Sprague-Dawley rats; cited from earlier work.
A further series deals with E. coli ATCC 25922. Put plainly: One-compartment in vitro infection (chemostat) model, E. coli ATCC 25922. The format is cell-based, Escherichia coli.
A further series deals with K. pneumoniae 19701. Put plainly: One-compartment in vitro infection (chemostat) model, K. pneumoniae 19701. It counts as cell-based, Klebsiella pneumoniae. Conditions: for Average Log10 CFU/mL (+/− Range of Data), 5 × Ceftibuten + Avibactam at 4 mg/L MIC: Ceftibuten 400 mg q8h.
A further series has as its system E. cloacae 4184. The series is described as follows: One-compartment in vitro infection (chemostat) model, E. cloacae 4184. It counts as cell-based, Enterobacter cloacae. To be noted: for Average Log10 CFU/mL (+/− Range of Data), 5 × Ceftibuten + Avibactam at 4 mg/L MIC: Ceftibuten 400 mg q8h.
In a further series the test system is E. coli 136-4643. Put plainly: One-compartment in vitro infection (chemostat) model, E. coli 136-4643. It counts as cell-based, Escherichia coli. To be noted: E. coli 4643; for Average Log10 CFU/mL (+/− Range of Data), 5 × Ceftibuten + Avibactam at 4 mg/L MIC: Ceftibuten 400 mg q8h.
Series [4] relates to OXA-positive isolates (n = 22). The format is cell-based, Enterobacteriaceae. Conditions: OXA n = 22; avibactam or clavulanic acid fixed at 4 μg/mL in combinations.
Series [5] relates to KPC-positive isolates (n = 23). The format is cell-based, Enterobacteriaceae. Conditions: KPC n = 23; avibactam or clavulanic acid fixed at 4 μg/mL in combinations.
Series [6] deals with pAmpC (PlasAmpC) isolates (n = 20). The format is cell-based, Enterobacteriaceae. Conditions: pAmpC n = 20; avibactam or clavulanic acid fixed at 4 μg/mL in combinations.
Series [7] relates to ESBL-, KPC-, and OXA-positive isolates. The format is cell-based, Enterobacteriaceae. To be noted: avibactam 4 μg/mL.
[8] abbreviates: MIC determined using 4 mg/L of avibactam.
The mark [9] stands for this setting: MIC determined using 8 mg/L of avibactam.
The mark [10] stands for this setting: MIC determined using a 1:1 ratio of ceftibuten:avibactam.
[11] abbreviates: ceftibuten 200 mg q8h monotherapy.
Where [12] appears, read: ceftibuten 400 mg q8h monotherapy.

Structures can show the parent of a compound that is named as a salt.

Consider 2 molecules from patent publication US20210060033A1, “ORALLY ADMINISTERED COMBINATIONS OF BETA-LACTAM ANTIBIOTICS AND AVIBACTAM DERIVATIVES FOR TREATING BACTERIAL INFECTIONS” (priority 2019, published 2021).

As to `NC(=O)[C@@H]1CC[C@@H]2CN1C(=O)N2OS(=O)(=O)O` [avibactam, [2S,5R]-2-carbamoyl-7-oxo-1,6-diazabicyclo[3.2.1]octan-6-yl hydrogen sulfate], in series [1] (Ct 0.5 mg/L of avibactam), the “Avibactam free-drug plasma % T > Concentration threshold value, target 1-log” value turned out to be 97.6%; the “Avibactam free-drug plasma % T > Concentration threshold value, target 2-log” value is given as 98.2%; the “Avibactam free-drug plasma % T > Concentration threshold value, target Stasis” value was determined as 96.9%. Moreover, in [1] (Ct 1 mg/L of avibactam), the “Avibactam free-drug plasma % T > Concentration threshold value, target 1-log” value is 85.2%; the “Avibactam free-drug plasma % T > Concentration threshold value, target 2-log” value amounted to 93.6%; the “Avibactam free-drug plasma % T > Concentration threshold value, target Stasis” value is reported as 76.0%. Moreover, in [1] (setting [8]), the “Avibactam free-drug plasma % T > MIC value, target 1-log” value amounted to 58.0%; the “Avibactam free-drug plasma % T > MIC value, target 2-log” value was 66.3%; the “Avibactam free-drug plasma % T > MIC value, target Stasis” value came to 53.2%; the “Avibactam free-drug plasma AUC:MIC value, target 1-log” value was 30.8. Besides, in series [1] (setting [8]), the “Avibactam free-drug plasma AUC:MIC value, target 2-log” value was 34.2 and the “Avibactam free-drug plasma AUC:MIC value, target Stasis” value came out at 28.7. For the same molecule, in [1] (setting [9]), the “Avibactam free-drug plasma % T > MIC value, target 1-log” value was determined as 79.4%; the “Avibactam free-drug plasma % T > MIC value, target 2-log” value is listed as 80.4%; the “Avibactam free-drug plasma % T > MIC value, target Stasis” value came out at 78.7%; the “Avibactam free-drug plasma AUC:MIC value, target 1-log” value came to 67.0. Besides, in [1] (setting [9]), the “Avibactam free-drug plasma AUC:MIC value, target 2-log” value is reported as 128 and the “Avibactam free-drug plasma AUC:MIC value, target Stasis” value worked out at 38.0. In addition, in series [1] (setting [10]), the “Avibactam free-drug plasma % T > MIC value, target 1-log” value came to 11.1%; the “Avibactam free-drug plasma % T > MIC value, target 2-log” value is on record as 22.7%; the “Avibactam free-drug plasma % T > MIC value, target Stasis” value is reported as 6.8%; the “Avibactam free-drug plasma AUC:MIC value, target 1-log” value was found to be 15.4. Moreover, in series [1] (setting [10]), the “Avibactam free-drug plasma AUC:MIC value, target 2-log” value worked out at 17.1 and the “Avibactam free-drug plasma AUC:MIC value, target Stasis” value turned out to be 14.4. The oral bioavailability result in [2] is listed as “about 6 % F”. For the same molecule, the “avibactam oral bioavailability (% F)” value in series [3] is reported as 1.2 % F.

With `Nc1nc(/C(=C/CC(=O)O)C(=O)N[C@@H]2C(=O)N3C(C(=O)O)=CCS[C@H]23)cs1` [ceftibuten, (6R,7R)-7-((Z)-2-(2-amino-4-thiazolyl)-4-carboxycrotonamido)-8-oxo-5-thia-1-azabicyclo(4.2.0)oct-2-ene-2-carboxylic acid], the “Reduction (bacterial burden)” value in the series with E. coli ATCC 25922 (Ceftibuten 267 mg TID, Avibactam 0 mg TID) is recorded as 1-log. Besides, the “ceftibuten % T>MIC required to achieve net bacterial stasis” value with E. coli ATCC 25922 (administered every 8 hours) is “approximately 45%”. Moreover, the “bacterial burden response at 24 hours” value in the series with E. coli ATCC 25922 (ceftibuten 3.75 mg to 75 mg q8h) is on record as “net bacterial stasis”; with E. coli ATCC 25922 (ceftibuten 12.5 mg q8h), “treatment failure”; with E. coli ATCC 25922 (ceftibuten 100 mg and 267 mg q8h), “reductions in bacterial burden”. Further, the “Average Log10 CFU/mL (+/− Range of Data), 5 × Ceftibuten + Avibactam at 4 mg/L MIC” value is 0 (0) Log10 CFU/mL with K. pneumoniae 19701 (0 h); 1.67 (1.17) Log10 CFU/mL in the series on K. pneumoniae 19701 (24 h); 0.99 (0.31) Log10 CFU/mL in the series on E. cloacae 4184 (0 h); 1.68 (0.20) Log10 CFU/mL in the series with E. cloacae 4184 (24 h); 0 (0) Log10 CFU/mL in the series on E. coli 136-4643 (0 h); 0 (0) Log10 CFU/mL with E. coli 136-4643 (24 h). Besides, the “bacterial burden response over 24 hours” value in the series with K. pneumoniae 19701 (setting [11]) is “no activity”; with K. pneumoniae 19701 (setting [12]) it was “did not reduce the bacterial burden”; in the series on E. cloacae 4184 (setting [11]) it was “no activity”; in the series with E. cloacae 4184 (setting [12]), “did not reduce the bacterial burden”; with E. coli 136-4643 (ceftibuten 400 mg q8h monotherapy, first 4 hours, regrowth matching control by 12 hours) it was “slight initial reduction in bacterial burden”. The “Estimated MIC90” value in series [4], in [5] and in [6] was >32 µg/mL in each case. Further, the “reduction of MIC90 values by addition of avibactam” value in series [7] is recorded as “at least five doubling dilutions”.
